According to US12268901B2, “Targeting cell tropism receptors to inhibit cytomegalovirus infection” (priority 2017, dated 2025):

Legend:
Type in all cases: cell-based, Human cytomegalovirus (HCMV)
[1] = system: TB40E-GFP infection of ARPE19 cells; assay: cAMP/PKA signaling pathway modulation, TB40E-GFP infection; settings: H-89 20 μM, SQ22536 150 μM, FSK 20 μM, 2 h prior to infection, MOI=4.0, 48 hpi
Experimental: (§1) FIGS. 7A-C. HCMV receptor engagement and cAMP/PKA signaling. ARPE19 or OR14I1 knock down cells were pretreated with phosphokinase A (PKA) inhibitor H-89 (20 μM), adenylate cyclase antagonist, SQ22536 (150 μM), or adenylate cyclase activator, forskolin (FSK; 20 μM) for 2 h prior to TB40E-GFP infection (MOI=4.0). Cells were fixed at 48 hpi and images taken.
H-89, SQ22536 and Foskolin were purchased from Sigma-Aldrich Chemicals. Wild type ARPE19 or ARPE19 cells expressing the indicated shRNAs were treated with protein kinase A (PKA) inhibitor H-89 (20 μM), adenylate cyclase antagonist, SQ22536 (150 μM), or adenylate cyclase activator, forskolin (FSK; 20 μM) for 2 h prior to infection with TB40E-GFP (MOI=2.0). After 2 h, the medium was then replaced by the standard medium that also contained the noted small molecules. Images were taken at 2 dpi.
as §1, with “HCMV” for “FIGS. 7A-C. HCMV”, “signaling was also evaluated.” for “signaling.”, “(MOI=4.0).” for “(MOI=4.0). Cells were fixed at 48 hpi and images taken.”

[2] = system: HCMV infection of ARPE19 epithelial cells; assay: Peptide blocking assay, infection of ARPE19 cells (percent GFP or IE positive cells); settings: short peptides 150 uM preincubated with TB40E, ARPE19, MOI=2.0, 2 dpi
Experimental: (A) Different amounts of peptide 1 were preincubated with TB40E-GFP virus and the mixture applied to ARPE19. Viral DNA levels were quantified by qPCR. (B) The results in (A) are presented as the relative amount of viral DNA relative to the DMSO control. (C) TB40E-GFP virus was preincubated with peptide 1 (100 μg/ml), or DMSO, followed by infection of ARPE19 cells (MOI=2.0). Cells were imaged for GFP expression at 2 dpi (D2) and 7 dpi (D7). (D) TB40E-GFP or BADrUL131-GFP virus, both expressing PC, were preincubated with peptide 1 (100 μg/ml), or DMSO prior to infection of ARPE19 cells (MOI=2.0). Cells were fixed and imaged for GFP at 2 dpi. All data represent the mean of n=3 experiments+/−SD. (E) Culture media supernatants from (C) were harvested on the indicated dpi and assayed for infectious virus by plaque assay. Values indicate the mean percent infected cells of 3 independent experiments±SD. ****p<0.0001.
FIG. 9. […] TB40E-GFP encoding the viral PC or AD169 lacking PC were preincubated with peptide 1 (100 μg/ml) and then infected on ARPE19 epithelial cells or HEL fibroblasts (MOI=2.0). Cells were fixed, permeabilized, stained for DNA, immunostained for anti-immediate early protein (IE) and imaged. […] Values indicate the mean percentage of infected cells of n=3 experiments±SD. **p<0.01; ***p<0.001.
FIG. 11. Each of the short peptides (aa sequences listed in Table 4; 150 uM), Peptide 1 (32.6 μM), or DMSO alone was preincubated with TB40E virus, followed by infection of ARPE19 cell lines (MOI=2.0). Cells were fixed and imaged for GFP and DNA at 2 dpi. Quantitation data indicating the percent GFP positive cells.
Live cell images: Phase and GFP signal images were captured on a Zeiss microscope (Zeiss AxioObserver Z1) at 10× magnification. Fixed cell images: cells were washed with PBS (Life Technologies) and fixed with 4% formalin in PBS (Sigma). DNA was stained with Hoechst 33342 dye (Life Technologies). The fixed cells were imaged using an Image Xpress Micro (IXM, Molecular Devices) at 4× magnification. Images were analyzed with MetaXpress imaging software (Molecular Devices) to determine the total cells per well and the percentage of infected cells (GFP positive) in each well. For IE immunostaining: fixed cells were permeabilized with 0.2% Triton X-100 (Sigma) in PBS. Blocking was performed with 1% BSA (Calbiochem, 2930) in PBS with 0.3M glycine (Sigma). Cells were then incubated in antibody targeting the major IE proteins (IE, EMD Millipore, MAB8131) diluted in 1% BSA in PBS. Cells were then incubated in secondary antibody (Texas Red-conjugated goat anti-mouse IgG2A, Southern Biotech, 1080-07) in PBS containing 1% BSA.
At 2 dpi with HCMV TB40E-GFP virus at the indicated MOI, ARPE19 cells were fixed with 4% formaldehyde and nuclei stained with Hoechst 33342. ARPE19 cells were imaged on an automated IXM scanning microscope. Numbers of infected cells were determined by calculating the percent GFP positive cells using MetaXpress software.
The noted synthetic peptides (100 ug/ml each or as described) were mixed with TB40E-GFP virus (1.2×10^6 PFU) and incubated at 37° C. for 2 h by rocking. The resulting samples were then subjected to the virus binding or infection assay.

[3] = system: TB40E-GFP entry into ARPE19 cells; assay: Cell-internalized virus assay in shRNA transduced ARPE19 cells; settings: shRNA transduced ARPE19, TB40E-GFP MOI of 2.0, on ice 1 h then 37° C. for 2 h
Experimental: In parallel to the virus binding assay, a subset of plates were then shifted to 37° C. for 2 h to allow virus entry. […] After 10 cold PBS washes, internalized viral DNA levels were quantified by qPCR.
To determine whether human OR14I1 and DMBT1 are required for optimal binding of HCMV TB40E-GFP to cells, shPDGFRA, shOR14I1 and shDMBT1 transduced ARPE19 cells were infected with TB40E-GFP at an MOI of 2.0 on ice for 1 h. The cells were washed ten times with cold PBS, and viral DNA associated with the cells was quantified by qPCR. As shown in FIGS. 3A-B, OR14I1 and DMBT1 are required for optimal binding of HCMV TB40E-GFP to cells. In addition, shPDGFRA, shDMBT1 and shOR14I1 transduced ARPE19 cells were infected with TB40E-GFP at an MOI of 2.0 on ice for 1 h. The cells were then shifted to 37° C. for 2 h to allow the virus entry. […] After 10 cold PBS washes, internalized viral DNA levels were quantified by qPCR.

[4] = system: TB40E-GFP infection of ARPE19 cells; assay: shRNA knock down ARPE19 cells infected with TB40E-GFP; settings: for percentage of GFP positive cells (flow cytometry): shRNA knock down ARPE19, TB40E-GFP, 48 hpi; for resistance to TB40E-GFP infection (GFP images): shRNA knock down ARPE19 cells, MOI=0.1, 48 hpi
Experimental: (§2) Each shRNA was cloned into the pLKO.1-blast (Addgene) lentiviral vector followed by viral packing and multiple rounds of amplification in 293T cells. Essentially, the pLKO.1-blast constructs and packaging plasmids were co-transfected into 293T cells with the resulting supernatant harvested at 36 h. Lentiviruses were recovered by ultracentrifugation for 2 h at 28,000 rpm in a Beckman SW28 rotor and resuspensed in DMEM. The lentiviruses were used to transduce the ARPE19 or HEL cells to generate shRNA knock down cells. Populations of stable cells were selected with blasticidin (Invitrogen, 10 μg/ml) for 1 week.
48 h after HCMV TB40E-GFP infection, ARPE19 cells were then treated with cell dissociation buffer (Gibco) and incubated at 37° C. for 10 min. Samples were then washed three times with cold buffer and fixed with cold 2% paraformadehyde in PBS. Cells were pelleted and washed and resuspended in washing buffer (0.1% tween-20 in PBS). Finally, the cells were resuspended in staining buffer (1% BSA, 0.1% sodium azide in HBSS) after pelleting again and immunofluorescent cells analyzed using a MACSQUANT analyzer 10 (Miltenyi Biotec) using blue laser 488 nm and filter 525/50 nm. Results were analyzed using FLOWJO V9.9 image analysis software.
(§3) The role of these proteins in fibroblast cell-type specific tropism in HCMV infection was also evaluated. The sgRNA knock out HEL-cas9 fibroblast pools were infected with HCMV Ad169 virus at MOI=3, and images were taken 48 hpi. […] HCMV infection resistance was also evaluated after knockdown using shRNA, in epithelial cells. The shOR14I1, shDMBT1 or shPDGFRA shRNA knock down ARPE19 cells were infected with TB40E-GFP virus at MOI=0.1, and images were taken 48 hpi. […] Actin is included as a loading control. Resistance to CMV infection was also evaluated in shPDGFRA, shOR14I1 or shDMBT1 knockdown HEL fibroblasts. Fibroblasts were infected with Ad169 at M01=1.0, and images were taken 48 hpi. […] Western blotting was used to confirm the depletion of PDGFRA and OR14I1 in the cells used in the experiments shown in FIG. 2H; the results are shown in FIG. 2I.

[5] = system: HCMV Ad169 infection of HEL fibroblasts; assay: shRNA knockdown HEL fibroblasts infected with Ad169; settings: MOI=1.0, 48 hpi
Experimental: as §2, §3

Row | Compound | ability to inhibit HCMV infection (percent GFP positive cells) [2] | internalized viral DNA, viral load as compared to control-infected cells [3] | percentage of GFP positive cells (flow cytometry) [4] | resistance to TB40E-GFP infection (GFP images) [4] | resistance to Ad169 infection [5] | other results
1 | O=S(=O)(NCCNC/C=C/c1ccc(Br)cc1)c1cccc2cnccc12 [Peptide H-89] | – | – | – | – | – | infectivity of TB40E-GFP in ARPE19 epithelial cells [1]: reduced infectivity significantly
2 | Nc1ncnc2c1ncn2C1CCCO1 (stereo not drawn) [SQ22536, 9-(Tetrahydro-2-furanyl)-9H-purin-6-amine] | – | – | – | – | – | infectivity of TB40E-GFP in ARPE19 epithelial cells [1]: reduced infectivity significantly
3 | EFLLMEFSGIWEL (OR14I1 peptide 9-21aa) | some inhibition | – | – | – | – | –
4 | FLLMEFSGIWELQ (OR14I1 peptide 10-22aa) | best activity | – | – | – | – | –
5 | GCAGAAGCTCCATCTCTTATC (expressed or natural sequence) [shOR14I1, shRNA targeting OR14I1, in pLKO.1-blast lentiviral vector] | – | about 50% | significant decrease in GFP-expressing cells | resistance was seen | not | –
6 | GCCTTTGTACCTCTAGGAATG (expressed or natural sequence) [shPDGFRA, shRNA targeting PDGFRA, in pLKO.1-blast lentiviral vector, reference compound] | – | about 50% | significant decrease in GFP-expressing cells | resistance was seen | resistant to infection | –
7 | GGAGTCAACTGTAGCAGAAGG (expressed or natural sequence) [shDMBT1, shRNA targeting DMBT1, in pLKO.1-blast lentiviral vector] | – | about 50% | significant decrease in GFP-expressing cells | resistance was seen | not | –
8 | LLMEFSGIWELQV (OR14I1 peptide 11-23aa) | best activity | – | – | – | – | –
9 | LMEFSGIWELQVL (OR14I1 peptide) [Peptide 12-24] | best activity | – | – | – | – | –
